# According to patent publication US20050272682A1, “SiRNA targeting PI3K signal transduction pathway and siRNA-based therapy” (priority 2004, published 2005):
# Entries after “also recorded” stand apart in the source; their conditions may differ.
# What was measured:
# PI3K/Akt pathway = assay: Western blot and immunofluorescence of Akt1, p85α and pAkt in transfected KM20 cells; type: cell-based, human
# Experimental: (§1) Cell culture transfection was carried out with siPORT™ Amine transfection agent according to the manufacturer's protocol. Three days after transfection with the siRNA duplexes, cells were harvested and protein expression was assessed by Western blot.
# (§2) Western immunoblot analyses were performed as described previously (Wang, et al., 2000). Cells were lysed with TNN buffer at 4° C. for 30 min. Lysates were clarified by centrifugation (10,000×g for 30 min at 4° C.) and protein concentrations determined using the method of Bradford (1976). Briefly, total protein (100 μg) was resolved on a 10% polyacrylamide gel and transferred to Immobilon-P […] membranes. Filters were incubated overnight at 4° C. in blotting solution (Tris-buffered saline containing 5% nonfat dried milk and 0.1% Tween 20), followed by a 1-h incubation with primary antibodies. Filters were washed three times in a blocking solution and incubated with horseradish peroxidase-conjugated secondary antibodies for 1 h. After three additional washes, the immune complexes were visualized by ECL detection.
# KM20 cells were seeded onto sterile glass coverslips in 60 mm dishes and cultured for 16-24 h before treatment. Cells were transfected with pik3r1 or Akt1 or scrambled (control) siRNA sequences. At 96 h posttransfection, cells were washed in PBS, fixed in cold methanol for 5 min, and washed in three changes of PBS followed by a solution of 10% normal goat serum. After washing, cells were then incubated with the primary antibody (diluted in PBS with 1.5% normal goat serum) for 60 min. […] After three final washes, the slides were viewed with a fluorescence microscope.
# It is speculated that siRNA directed to PI3K/Akt pathway components would inhibit cell growth and induce apoptosis in human colorectal cancer cell lines. […] In view of evidence that Akt plays a critical role in the prosurvival properties of PI3K (Nichol son, et al., 2002), activation of Akt in pik3r1 and Akt1 siRNA treated cells was then analyzed by Western blot and immunofluorescent analysis using a phospho-specific Ser473 Akt antibody.
# KM20 cells = assay: MTT assay, KM20 cells; type: cell-based, human; conditions: KM20 cells at 96, 120 and 144 h after transfection
# Experimental: Cells were transfected with pik3r1, Akt1 or scrambled siRNA at a density of 2×10^5 cells/well in 12 well plates. After 24 h, adherent cells were detached by rapid trypsinization, counted in a Hausser chamber and replated into 96 well plates at a concentration of 2×10^3 cells/well. […]
# KM12C cells [1] = assay: Western blot of apoptosis-related proteins, KM12C cells; type: cell-based, human
# Experimental: as §1, §2
# KM12C cells [2] = assay: Ribonuclease protection assay, KM12C cells; type: cell-based, human
# Experimental: Cells were treated with pik3r1 and Akt1 siRNA and harvested 72 h later. RNA was isolated from cells using TRIzol® RNA reagent according to the manufacturer's protocol. A multiprobe template set (hAPO3c), which assesses expression of caspase 8, FASL, FAS, DR3, Decoy receptor 1 (DcR1), DR4, DR5, TRAIL, TNFR p55, TRADD and the housekeeping genes GAPDH and L32, as well as the Human Apoptosis hAPO-2b and hAPO-2c Template Set were labeled using Ambion T7 MAXIscript. The Ambion RPA III kit was then utilized to hybridize the RNA from the samples with the labeled probes. After RNAse treatment of hybridized samples, protected products were resolved on a 5% acrylamide gel, adsorbed onto filter paper, and exposed to Kodak BioMax MR film in a cassette at −70° C. and analyzed as previously described (Wang, et al., 2000).
# KM20 tumor xenografts [3] = assay: KM20 tumor xenograft growth in nude mice, intratumoral siRNA with electrotherapy; type: in vivo; conditions: 5 μg siRNA intratumoral + electric pulses every 3rd day; by day 12, persisted for the study period (30 days)
# Experimental: For in vivo studies, 4-6 week old male nude^nu/nu mice were obtained from Harlan Sprague Dawley (Indianapolis, Ind.) and housed in clean pathogen-free rooms in an environment with controlled temperature (22° C.), humidity, and a 12 h light/dark cycle. The mice were fed standard chow (Formula Chow 5008; Purina Mills, St. Louis, Mo.) and tap water ad libitum and allowed to acclimate for one week.
# Prior to tumor injection, KM20 cells were harvested, washed twice in ice-cold serum free minimum Eagle's medium, counted for viable cells by trypan blue exclusion. The cells were resuspended in the same medium and used to inject mice subcutaneously (sc) with 2×10^6 cells in a volume of 0.2 ml. After tumors reached ˜60 mm^2, mice were sacrificed and 9 mm^2 tumor xenografts were transferred to the left flank of athymic mice. After tumor xenografts reached ˜60 mm^2 (day 10), mice were randomly divided into three groups (n=5 mice/group): the first group of mice was treated with scrambled siRNA, the second and third groups were treated with siRNA (5 μg diluted in 100 μl of serum free medium) directed against pik3r1 or Akt1, respectively, as intratumoral injections. […] Tumor growth was assessed every third day from day 10 onward by measuring the two greatest perpendicular tumor dimensions using vernier calipers (Mitutozo, Tokyo, Japan) (Wang, et al., 2002). […]
# KM20 tumor xenografts [4] = assay: Western blot of KM20 tumor xenografts after siRNA treatment; type: in vivo, mice
# Experimental: as §2
# Prior to tumor injection, KM20 cells were harvested, washed twice in ice-cold serum free minimum Eagle's medium, counted for viable cells by trypan blue exclusion. The cells were resuspended in the same medium and used to inject mice subcutaneously (sc) with 2×10^6 cells in a volume of 0.2 ml. After tumors reached ˜60 mm^2, mice were sacrificed and 9 mm^2 tumor xenografts were transferred to the left flank of athymic mice. After tumor xenografts reached ˜60 mm^2 (day 10), mice were randomly divided into three groups (n=5 mice/group): the first group of mice was treated with scrambled siRNA, the second and third groups were treated with siRNA (5 μg diluted in 100 μl of serum free medium) directed against pik3r1 or Akt1, respectively, as intratumoral injections. Treatments consisted of electrotherapy initiated from 2 to 3 min after intratumoral siRNA injection once a day every 3 days. Tumor growth was assessed every third day from day 10 onward by measuring the two greatest perpendicular tumor dimensions using vernier calipers (Mitutozo, Tokyo, Japan) (Wang, et al., 2002). Consistent with institutional requirements, the mice were euthanized once tumors grew to a size greater that 2 cm.
# Electrotherapy consisted of intratumoral administration of pik3r1, Akt1 or scrambled control siRNA followed by exposure of tumor nodules to electric pulses. Square wave electric pulses of 70 μsec, 100 V amplitude were delivered through two parallel stainless steel electrodes (Tweezertrode Model 522, Holliston, Mass.) with an electropulsator BTX T 820 (Holliston, Mass.). In the study, plate electrodes with a distance of 10 mm between them were used for percutaneous delivery of electric pulses. Each run of electric pulses was delivered in two trains of tree pulses, with 1 sec interval, in two perpendicular directions. The orientation of the electric field was used to direct the uptake of the siRNA. Good contact between the electrodes and the skin was assured by means of a conductive gel. Nodules larger than 7 mm in diameter were treated with several runs of electric pulses, administered in adjacent positions in such a way that the whole tumor area was effectively treated.
substance,measurement,setting,value
"pik3r1 siRNA: siRNA to human pik3r1 (p85α) used in KM20/KM12C cells and xenografts; SEQ ID NO:24 vs. SEQ ID NO:25 (chain 1 GAAUAUACCCGCACAUCCCUU; chain 2 GGGAUGUGCGGGUAUAUUCUU; listed as RNA, chemistry not given here)",pAkt expression (immunofluorescent analysis),"PI3K/Akt pathway; 96 h posttransfection, compared with scrambled sequences",suppression
same,p85α protein levels,"PI3K/Akt pathway; Western blot, 72, 96 and 120 h after transfection in Example 19",reduced; also recorded: decreased
same,pAkt expression levels,"PI3K/Akt pathway; Western blot, phospho-Ser473 Akt antibody",suppressed; also recorded: decreased
same,cell viability (MTT),KM20 cells,significantly decreased
same,Bax protein expression,KM12C cells [1],increased
same,Bcl-2 protein expression,KM12C cells [1],decreased
same,Bcl-xL protein expression,KM12C cells [1],decreased
same,caspase-9 activation (35 kDa large active subunit),KM12C cells [1],activation
same,cytochrome C release,KM12C cells [1],induced
same,Bcl-w mRNA expression,KM12C cells [2],decreased
same,"Bcl-x (L, S) mRNA expression",KM12C cells [2],decreased
same,KM20 tumor growth,KM20 tumor xenografts [3],Significant inhibitory effects
same,Bax protein expression,KM20 tumor xenografts [4],increased
same,PARP cleavage,KM20 tumor xenografts [4],increased
same,activation of caspase-3,KM20 tumor xenografts [4],increased
same,activation of caspase-8,KM20 tumor xenografts [4],increased
same,activation of caspase-9,KM20 tumor xenografts [4],increased
same,p85α expression,KM20 tumor xenografts [4],decreased
same,pAkt expression,KM20 tumor xenografts [4],decreased
same,Bcl-xL protein expression,KM20 tumor xenografts [4]; compared to scrambled sequence,decreased
same,Mcl-1 protein expression,KM20 tumor xenografts [4]; compared to scrambled sequence,decreased
same,cytochrome C expression,KM20 tumor xenografts [4]; compared with scrambled control,increased
